Data published in patent US20260374756A1, “HETEROCYCLIC COMPOUNDS AS INHIBITORS OF MONOACYLGLYCEROL LIPASE (MAGL)” (Hoffmann-La Roche Inc., priority 2022, published 2026).

Each molecule was assayed against T1, hMAGL (Homo sapiens, UniProt Q99685) (assay: 2-AG assay: MAGL inhibition, hydrolysis of 2-arachidonoylglycerol to arachidonic acid followed by mass spectrometry).
T1 sequence (Q99685 1-303): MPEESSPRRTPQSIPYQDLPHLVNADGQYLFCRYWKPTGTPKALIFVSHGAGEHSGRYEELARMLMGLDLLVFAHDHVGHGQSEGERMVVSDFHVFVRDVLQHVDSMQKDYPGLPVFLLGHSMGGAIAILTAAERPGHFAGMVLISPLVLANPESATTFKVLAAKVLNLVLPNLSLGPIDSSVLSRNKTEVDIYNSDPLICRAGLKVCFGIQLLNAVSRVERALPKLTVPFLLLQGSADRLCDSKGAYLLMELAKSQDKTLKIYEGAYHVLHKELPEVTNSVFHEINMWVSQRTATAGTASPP
Type: biochemical
Outline: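 Read-out is LC-MS/MS of arachidonic acid released from 2-arachidonoylglycerol (8 μM final), normalised to d8-arachidonic acid internal standard after acetonitrile quench. Enzyme […] and compound were pre-mixed 15 min, then reacted 30 min, both at RT, in Tris/EDTA buffer with 0.01% Tween-20 and 2.5% DMSO.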

IC50 [nM]	Structure (SMILES)
4.03	O=C(N1CC2(CC(n3cnc(C4CC4)n3)C2)C1)N1CC2(CN(Cc3nc(C4(C(F)(F)F)CC4)no3)C2)C1 [Example 338, [6-(3-cyclopropyl-1,2,4-triazol-1-yl)-2-azaspiro[3.3]heptan-2-yl]-[6-[[3-[1-(trifluoromethyl)cyclopropyl]-1,2,4-oxadiazol-5-yl]methyl]-2,6-diazaspiro[3.3]heptan-2-yl]methanone]
0.7	O=C(N1CC2(CC(Cc3nnc(C4(C(F)(F)F)CC4)o3)C2)C1)N1CC2(CC(n3cnc(C4CC4)n3)C2)C1 [Example 8]
168	O=C(N1CC2(CC(n3cnc(C(F)(F)F)n3)C2)C1)N1CC2(CN(Cc3coc(C(F)(F)F)n3)C2)C1 [Example 213, [6-[[2-(trifluoromethyl)oxazol-4-yl]methyl]-2,6-diazaspiro[3.3]heptan-2-yl]-[6-[3-(trifluoromethyl)-1,2,4-triazol-1-yl]-2-azaspiro[3.3]heptan-2-yl]methanone]
0.35	O=C(N1CC2(CC(Cc3cn(CC(F)(F)F)nc3C(F)(F)F)C2)C1)N1CC2(CC(n3cnc(C(F)(F)F)n3)C2)C1 [Example 121, [6-[[1-(2,2,2-trifluoroethyl)-3-(trifluoromethyl)pyrazol-4-yl]methyl]-2-azaspiro[3.3]heptan-2-yl]-[6-[3-(trifluoromethyl)-1,2,4-triazol-1-yl]-2-azaspiro[3.3]heptan-2-yl]methanone]
0.38	O=C(N1CC2(CC(Cn3ccc(C4CC4)n3)C2)C1)N1CC2(CC(n3cnc(C4CC4)n3)C2)C1 [Example 143, [6-[(3-cyclopropylpyrazol-1-yl)methyl]-2-azaspiro[3.3]heptan-2-yl]-[6-(3-cyclopropyl-1,2,4-triazol-1-yl)-2-azaspiro[3.3]heptan-2-yl]methanone]
351	Cc1nc(C(F)(F)F)c(CN2CC3(C2)CN(C(=O)N2CC4(CC(n5cnc(C6(O)CC6)n5)C4)C2)C3)s1 [Example 87, [6-[3-(1-hydroxycyclopropyl)-1,2,4-triazol-1-yl]-2-azaspiro[3.3]heptan-2-yl]-[6-[[2-methyl-4-(trifluoromethyl)thiazol-5-yl]methyl]-2,6-diazaspiro[3.3]heptan-2-yl]methanone]
81.2	O=C(N1CC2(CCN(Cc3nc(C(F)(F)F)cs3)CC2)C1)N1CC2(CC(n3cnc(C4(O)CC4)n3)C2)C1 [Example 175, [6-[3-(1-hydroxycyclopropyl)-1,2,4-triazol-1-yl]-2-azaspiro[3.3]heptan-2-yl]-[7-[[4-(trifluoromethyl)thiazol-2-yl]methyl]-2,7-diazaspiro[3.5]nonan-2-yl]methanone]
3730	Cn1cnc(C#N)c1CN1CC2(C1)CN(C(=O)N1CC3(CC(n4cnc(C5(O)CC5)n4)C3)C1)C2 [Example 282, 5-[[2-[6-[3-(1-hydroxycyclopropyl)-1,2,4-triazol-1-yl]-2-azaspiro[3.3]heptane-2-carbonyl]-2,6-diazaspiro[3.3]heptan-6-yl]methyl]-1-methyl-imidazole-4-carbonitrile]
25.2	Cn1nc(C(F)(F)F)cc1CN1CCC2(CC1)CN(C(=O)N1CC3(CC(n4cnc(C(F)(F)F)n4)C3)C1)C2 [Example 25]
2.65	Cc1nc(C(F)(F)F)c(CN2CC3(C2)CN(C(=O)N2CC4(CC(n5cnc(C6CC6)n5)C4)C2)C3)s1 [Example 86, [6-(3-cyclopropyl-1,2,4-triazol-1-yl)-2-azaspiro[3.3]heptan-2-yl]-[6-[[2-methyl-4-(trifluoromethyl)thiazol-5-yl]methyl]-2,6-diazaspiro[3.3]heptan-2-yl]methanone]
1.51	O=C(N1CC2(CC(Cc3nc(C(F)(F)F)c[nH]3)C2)C1)N1CC2(CC(n3cnc(C(F)(F)F)n3)C2)C1 [Example 348, [6-[[4-(trifluoromethyl)-1H-imidazol-2-yl]methyl]-2-azaspiro[3.3]heptan-2-yl]-[6-[3-(trifluoromethyl)-1,2,4-triazol-1-yl]-2-azaspiro[3.3]heptan-2-yl]methanone]
0.12	O=C(N1CC2(CC(Cc3cn[nH]c3C(F)(F)F)C2)C1)N1CC2(CC(n3cnc(C(F)(F)F)n3)C2)C1 [Example 119, [6-[[5-(trifluoromethyl)-1H-pyrazol-4-yl]methyl]-2-azaspiro[3.3]heptan-2-yl]-[6-[3-(trifluoromethyl)-1,2,4-triazol-1-yl]-2-azaspiro[3.3]heptan-2-yl]methanone]
8.91	O=C(N1CC2(CC(Cc3cn(CC(F)(F)F)nn3)C2)C1)N1CC2(CC(n3cnc(C(F)(F)F)n3)C2)C1 [Example 336, [6-[[1-(2,2,2-trifluoroethyl)triazol-4-yl]methyl]-2-azaspiro[3.3]heptan-2-yl]-[6-[3-(trifluoromethyl)-1,2,4-triazol-1-yl]-2-azaspiro[3.3]heptan-2-yl]methanone]
1.7	O=C(N1CC2(CC(Cn3nccc3C(F)(F)F)C2)C1)N1CC2(CC(c3cc(C4(O)CC4)n[nH]3)C2)C1 [Example 5]
260	O=C(N1CC2(CC(n3cnc(C(F)(F)F)n3)C2)C1)N1CC2(CN(Cc3ncc(C(F)(F)F)[nH]3)C2)C1 [Example 231, [6-[[5-(trifluoromethyl)-1H-imidazol-2-yl]methyl]-2,6-diazaspiro[3.3]heptan-2-yl]-[6-[3-(trifluoromethyl)-1,2,4-triazol-1-yl]-2-azaspiro[3.3]heptan-2-yl]methanone]
0.26	O=C(N1CC2(CC(Cc3cn(C4CC4)nc3C(F)(F)F)C2)C1)N1CC2(CC(n3cnc(C(F)(F)F)n3)C2)C1 [Example 61, [6-[[1-cyclopropyl-3-(trifluoromethyl)pyrazol-4-yl]methyl]-2-azaspiro[3.3]heptan-2-yl]-[6-[3-(trifluoromethyl)-1,2,4-triazol-1-yl]-2-azaspiro[3.3]heptan-2-yl]methanone]
68.1	O=C(N1CC2(CCN(Cc3cc(C(F)(F)F)no3)CC2)C1)N1CC2(CC(n3cnc(C(F)(F)F)n3)C2)C1 [Example 317, [7-[[3-(trifluoromethyl)isoxazol-5-yl]methyl]-2,7-diazaspiro[3.5]nonan-2-yl]-[6-[3-(trifluoromethyl)-1,2,4-triazol-1-yl]-2-azaspiro[3.3]heptan-2-yl]methanone]
21.8	O=C(N1CC2(CCC(Cc3nnc(C(F)(F)F)[nH]3)CC2)C1)N1CC2(CC(n3cnc(C(F)(F)F)n3)C2)C1 [Example 34, [6-[3-(trifluoromethyl)-1,2,4-triazol-1-yl]-2-azaspiro[3.3]heptan-2-yl]-[7-[[5-(trifluoromethyl)-4H-1,2,4-triazol-3-yl]methyl]-2-azaspiro[3.5]nonan-2-yl]methanone]
46.7	Cn1c(CN2CC3(C2)CN(C(=O)N2CC4(CC(n5cnc(C6CC6)n5)C4)C2)C3)nnc1C(F)(F)F [Example 322, [6-(3-cyclopropyl-1,2,4-triazol-1-yl)-2-azaspiro[3.3]heptan-2-yl]-[6-[[4-methyl-5-(trifluoromethyl)-1,2,4-triazol-3-yl]methyl]-2,6-diazaspiro[3.3]heptan-2-yl]methanone]
183	O=C(N1CC2(CC(n3cnc(C(F)(F)F)n3)C2)C1)N1CC2(CN(Cc3ccn(CCC(F)(F)F)n3)C2)C1 [Example 312, [6-[3-(trifluoromethyl)-1,2,4-triazol-1-yl]-2-azaspiro[3.3]heptan-2-yl]-[6-[[1-(3,3,3-trifluoropropyl)pyrazol-3-yl]methyl]-2,6-diazaspiro[3.3]heptan-2-yl]methanone]
